Active and inactive are the calls of the source. The rule behind the calls is not given here.
The molecules below were run against Ubiquitin carboxyl-terminal hydrolase 8 (Homo sapiens) (UniProt P40818) (assay: Ubiquitin-specific protease 8 inhibitors, concentration-effect, biochemical, validation of initial actives (AID 1645862;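 note: potency reflects inhibition of USP8 cleavage of a ubiquitin rhodamine substrate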)). Conditions: recombinant USP8 deubiquitinase activity assay.
Chain of Ubiquitin carboxyl-terminal hydrolase 8 (Homo sapiens) (P40818 whole entry, looked up): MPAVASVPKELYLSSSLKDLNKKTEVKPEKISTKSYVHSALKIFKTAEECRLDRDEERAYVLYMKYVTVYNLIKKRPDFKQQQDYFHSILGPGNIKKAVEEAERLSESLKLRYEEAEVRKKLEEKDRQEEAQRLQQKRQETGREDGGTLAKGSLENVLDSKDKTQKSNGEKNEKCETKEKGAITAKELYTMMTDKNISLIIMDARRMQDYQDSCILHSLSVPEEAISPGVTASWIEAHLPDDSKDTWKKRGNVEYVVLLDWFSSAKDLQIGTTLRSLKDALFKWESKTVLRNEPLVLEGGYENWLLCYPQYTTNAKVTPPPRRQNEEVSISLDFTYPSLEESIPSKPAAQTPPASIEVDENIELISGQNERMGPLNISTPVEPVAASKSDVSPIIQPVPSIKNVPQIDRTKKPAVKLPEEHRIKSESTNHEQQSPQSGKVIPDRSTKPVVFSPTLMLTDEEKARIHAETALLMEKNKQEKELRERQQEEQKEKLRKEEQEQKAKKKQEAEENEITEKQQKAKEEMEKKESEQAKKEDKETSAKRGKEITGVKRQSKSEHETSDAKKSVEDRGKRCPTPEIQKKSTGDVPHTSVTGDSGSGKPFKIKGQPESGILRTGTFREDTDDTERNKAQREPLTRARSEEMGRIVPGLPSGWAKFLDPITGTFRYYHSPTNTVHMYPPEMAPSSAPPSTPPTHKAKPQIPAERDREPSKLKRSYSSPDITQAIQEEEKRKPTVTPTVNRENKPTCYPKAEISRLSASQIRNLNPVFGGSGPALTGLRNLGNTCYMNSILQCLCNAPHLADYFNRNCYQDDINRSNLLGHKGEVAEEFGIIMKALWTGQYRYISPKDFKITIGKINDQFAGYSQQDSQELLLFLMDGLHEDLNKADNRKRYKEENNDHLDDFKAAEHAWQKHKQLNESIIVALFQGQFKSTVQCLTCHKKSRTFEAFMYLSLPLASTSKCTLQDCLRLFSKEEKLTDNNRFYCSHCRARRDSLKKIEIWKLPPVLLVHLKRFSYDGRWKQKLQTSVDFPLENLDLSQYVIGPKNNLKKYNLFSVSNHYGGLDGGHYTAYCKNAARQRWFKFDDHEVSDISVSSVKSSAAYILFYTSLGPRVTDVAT

IC50	SMILES
> 40 µM (inactive)	Cc1ccc(NC(=O)Cn2cnc3c(c(C)c(C)n3-c3ccccc3)c2=O)c(C)c1
> 40 µM (inactive)	O=C(CCCc1nnc2c(=O)n(-c3cccc(F)c3)ccn12)NCc1ccc(Cl)cc1
> 40 µM (inactive)	Fc1ccccc1-c1nnc(C2(c3ccc4c(c3)OCO4)CCOCC2)o1
> 40 µM (inactive)	CCOc1ccc(CCNC(=O)Cn2c(-c3ccc(F)cc3)cc(C(C)=O)c2C)cc1OCC
> 40 µM (inactive)	Cc1cc(NC(=O)CSc2ncc(-c3cccc([N+](=O)[O-])c3)n2-c2cccc(Cl)c2)no1
33.6 µM	O=C(Nc1cccc(Br)c1)c1cc(-c2cccnc2)n[nH]1
> 40 µM (inactive)	Nc1c(C(=O)NCc2ccc3c(c2)OCO3)nnn1Cc1ccc(Br)cc1F
> 40 µM (inactive)	O=C(CC1C(=O)Nc2nc3ccccc3n21)Nc1cccc2ccccc12 (stereo not drawn)
> 40 µM (inactive)	COc1ccc(S(=O)(=O)NCc2ccc3c(c2)cc(C)n3C)cc1
> 40 µM (inactive)	O=C(c1cnc2ccccc2n1)N1CCC(S(=O)(=O)c2ccc(-c3ccco3)cc2)CC1
> 40 µM (inactive)	CCc1ccc(S(=O)(=O)Nc2ccc(-c3nnc(-c4ccccc4)o3)cc2)cc1
> 40 µM (inactive)	COc1cccc(NC(=O)c2cn(-c3cc(N4CCCC4)ncn3)cn2)c1
> 40 µM (inactive)	CCOC(=O)c1ccc(NC(=O)Cn2c(=O)n(CC(=O)NCc3ccco3)c(=O)c3ccccc32)cc1
> 40 µM (inactive)	Cc1ccccc1-c1noc(-c2ccccc2OCC(=O)NC(C)C)n1
> 40 µM (inactive)	O=C(CC1C(=O)N(C2CCCC2)c2nc3ccccc3n21)Nc1ccccc1 (stereo not drawn)
> 40 µM (inactive)	Cc1cccc(Cl)c1NC(=O)Nc1ccc(NC(=O)c2ccccc2O)cc1
> 40 µM (inactive)	COc1cccc(C(=O)Nc2ccc(SC(C(=O)Nc3ccccc3)c3ccccc3)cc2)c1 (stereo not drawn)
> 40 µM (inactive)	CN1CCC(N2CCN(C(=O)C3CCCN(c4cnc5nccnc5c4)C3)CC2)CC1 (stereo not drawn)
> 40 µM (inactive)	CCN(CC)C(=O)c1sc(NC(=O)c2cc(-c3ccccc3Cl)nc3ccccc23)c(C(N)=O)c1C

IC50	SMILES
37.9 µM	O=C(COc1ccccc1-c1nnc(-c2ccccc2)o1)NCc1ccco1
> 40 µM (inactive)	CCc1ccc([C@@H]2c3c(C)nn(C)c3NC(=O)[C@H]2NC(=O)c2ccc(OC)c(OC)c2)cc1
> 40 µM (inactive)	Cc1ccc(C)c(S(=O)(=O)N2CCN(c3ccc4nnc(-c5ccco5)n4n3)CC2)c1
> 40 µM (inactive)	CNc1ccc(-c2noc([C@@H]3CCCN3Cc3cccc(C#N)c3)n2)cn1
> 40 µM (inactive)	COc1ccc(Cl)cc1NC(=O)c1nc(-c2cn(-c3ccccc3)nn2)no1
> 40 µM (inactive)	N#Cc1ccc(NC(=O)Nc2cccn(Cc3ccc(F)cc3)c2=O)cc1
> 40 µM (inactive)	COc1ccc(OC)c(NC(=O)c2sc(-c3ccccc3)nc2C)c1
8.85 µM	Oc1cccc2nc3c(O)cccc3nc12
> 40 µM (inactive)	O=c1[nH]c(C2CCN(S(=O)(=O)c3ccc(S(=O)(=O)NC4CCCCC4)cc3)CC2)nc2c1nnn2Cc1c(F)cccc1Cl
> 40 µM (inactive)	Cc1cc(=O)[nH]c(SCC(=O)c2cc(C)n(CCC3=CCCCC3)c2C)c1C#N
> 40 µM (inactive)	Cc1ccc(-n2nnnc2-c2cnc3cc(Cl)ccc3c2N)cc1
> 40 µM (inactive)	Cc1ccc(S(=O)(=O)N2CCC3(CC2)OC(=O)Nc2ccccc23)cc1
> 40 µM (inactive)	COC(=O)c1ccc(NC(=O)c2ccc(COc3cc(Cl)ccc3Cl)cc2)cc1
> 40 µM (inactive)	CCN(Cc1ccccc1)C(=O)Cn1ccc2ccn(C)c2c1=O
> 40 µM (inactive)	COc1ccc2c(c1)c(CC(=O)Nc1ccc(N3CCOCC3)cc1)c(C)n2C(=O)c1ccc(Cl)cc1
> 40 µM (inactive)	O=c1[nH]cccc1NS(=O)(=O)c1ccc(F)cc1
> 40 µM (inactive)	Cn1cc(C(=O)Nc2ccccc2)c2[nH]c(=O)n(Cc3ccccc3)c(=O)c21
33.6 µM	O=C(Nc1cc(F)c2nc(N3CCOCC3)ccc2c1)C1CC1
37.7 µM	CC1=C(C)C(N(c2ccccc2)c2ccccc2)N(CCC(C)C)C1=O (stereo not drawn)

From PubChem BioAssay AID1645862 (Buhrlage Lab, Dana-Farber Cancer Institute and Novartis …, 2021)
